Results taken from US12679843B2, “Pyrrolopyrimidine amines as complement inhibitors” (BioCryst Pharmaceuticals, Inc., priority 2020, dated 2026).

These molecules were tested against Factor D (Homo sapiens, UniProt P00746) (assay: Factor D esterolytic assay (Z-Lys-SBzl thioester substrate, DTNB, 405 nm)). Details: substrate Z-Lys-SBzl 1.29 mM, 100 mM HEPES, 500 mM NaCl, pH 7.5, 10% DMSO, tested a minimum of three times.
Format: biochemical
Procedure, shortened: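 Human Factor D hydrolysis of Z-Lys-SBzl (1.29 mM) monitored at 405 nm via DTNB thiol detection for 600 s, 690 nm background subtracted. Buffer 100 mM HEPES, 500 mM NaCl, pH 7.5, 10% DMSO; substrate added immediately or after room-temperature preincubation. IC50 from percent inhibition of rate, at least three tests.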

Sequence of Factor D (P00746 26-253): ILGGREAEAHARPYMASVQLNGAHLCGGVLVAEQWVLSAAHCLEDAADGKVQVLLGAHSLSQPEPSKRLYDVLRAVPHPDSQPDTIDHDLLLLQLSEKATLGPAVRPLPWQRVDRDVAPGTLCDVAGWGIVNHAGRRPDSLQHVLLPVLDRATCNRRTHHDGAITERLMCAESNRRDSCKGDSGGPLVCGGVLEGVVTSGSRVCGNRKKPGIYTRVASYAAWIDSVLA

Row | SMILES | IC50
1 | Cc1ccc(-c2cc(C)c3c(c2)c2c(N)ncnc2n3CC(=O)N2[C@@H]3C[C@@H]3C[C@H]2C(=O)Nc2cccc(Br)n2)cc1 [Compound 256a, (1R,3S,5R)-2-(2-(4-amino-8-methyl-6-(p-tolyl)-9H-pyrimido[4,5-b]indol-9-yl)acetyl)-N-(6-bromopyridin-2-yl)-2-azabicyclo[3.1.0]hexane-3-carboxamide] | < 100 nM
2 | COc1cc(C)c2c(c1)c1c(N)ncnc1n2CC(=O)N1[C@@H]2C[C@@H]2C[C@H]1C(=O)Nc1cccc(Br)n1 [Compound 257g, (1R,3S,5R)-2-(2-(4-amino-6-methoxy-8-methyl-9H-pyrimido[4,5-b]indol-9-yl)acetyl)-N-(6-bromopyridin-2-yl)-2-azabicyclo[3.1.0]hexane-3-carboxamide] | < 100 nM
3 | COc1cc(C)c2c(c1)c1c(N)ncnc1n2CC(=O)N1[C@H](C(=O)Nc2cccc(Br)n2)C[C@@]2(C)C[C@@H]12 [Compound 258a, (1R,3S,5R)-2-(2-(4-amino-6-methoxy-8-methyl-9H-pyrimido[4,5-b]indol-9-yl)acetyl)-N-(6-bromopyridin-2-yl)-5-methyl-2-azabicyclo[3.1.0]hexane-3-carboxamide] | < 100 nM
4 | Nc1ncnc2c1c1cc(C(F)(F)F)ccc1n2CC(=O)N1[C@@H]2C[C@@H]2C[C@H]1C(=O)Nc1ccnc(Br)c1 [Compound 259d, (1R,3S,5R)-2-(2-(4-amino-6-(trifluoromethyl)-9H-pyrimido[4,5-b]indol-9-yl)acetyl)-N-(2-bromopyridin-4-yl)-2-azabicyclo[3.1.0]hexane-3-carboxamide] | 100 to 1000 nM
5 | Nc1ncnc2c1c1cc(C(F)(F)F)ccc1n2CC(=O)N1[C@@H]2C[C@@H]2C[C@H]1C(=O)Nc1cncc(Br)n1 [Compound 260a, (1R,3S,5R)-2-(2-(4-amino-6-(trifluoromethyl)-9H-pyrimido[4,5-b]indol-9-yl)acetyl)-N-(6-bromopyrazin-2-yl)-2-azabicyclo[3.1.0]hexane-3-carboxamide] | < 100 nM
6 | C[C@@]12C[C@@H](C(=O)Nc3cncc(Br)n3)N(C(=O)Cn3c4ccc(C(F)(F)F)cc4c4c(N)ncnc43)[C@@H]1C2 [Compound 261d, (1R,3S,5R)-2-(2-(4-amino-6-(trifluoromethyl)-9H-pyrimido[4,5-b]indol-9-yl)acetyl)-N-(6-bromopyrazin-2-yl)-5-methyl-2-azabicyclo[3.1.0]hexane-3-carboxamide] | < 100 nM
7 | CN(C)c1ccc2c(c1)c1c(N)ncnc1n2CC(=O)N1[C@@H]2C[C@@H]2C[C@H]1C(=O)Nc1cccc(Br)n1 [Compound 262a, (1R,3S,5R)-2-(2-(4-amino-6-(dimethylamino)-9H-pyrimido[4,5-b]indol-9-yl)acetyl)-N-(6-bromopyridin-2-yl)-2-azabicyclo[3.1.0]hexane-3-carboxamide] | < 100 nM
8 | Cc1cc(-c2ccncc2)cc2c3c(N)ncnc3n(CC(=O)N3[C@@H]4C[C@@H]4C[C@H]3C(=O)Nc3cccc(Br)n3)c12 [Compound 263c, (1R,3S,5R)-2-(2-(4-amino-8-methyl-6-(pyridin-4-yl)-9H-pyrimido[4,5-b]indol-9-yl)acetyl)-N-(6-bromopyridin-2-yl)-2-azabicyclo[3.1.0]hexane-3-carboxamide] | < 100 nM
9 | Cc1cc(-c2ccncc2)cc2c3c(N)ncnc3n(CC(=O)N3[C@H](C(=O)Nc4cccc(Br)n4)C[C@@]4(C)C[C@@H]34)c12 [Compound 264a, (1R,3S,5R)-2-(2-(4-amino-8-methyl-6-(pyridin-4-yl)-9H-pyrimido[4,5-b]indol-9-yl)acetyl)-N-(6-bromopyridin-2-yl)-5-methyl-2-azabicyclo[3.1.0]hexane-3-carboxamide] | < 100 nM
10 | Cc1cc(O)cc2c3c(N)ncnc3n(CC(=O)N3[C@H](C(=O)Nc4cccc(Br)n4)C[C@@]4(C)C[C@@H]34)c12 [Compound 265a, (1R,3S,5R)-2-(2-(4-amino-6-hydroxy-8-methyl-9H-pyrimido[4,5-b]indol-9-yl)acetyl)-N-(6-bromopyridin-2-yl)-5-methyl-2-azabicyclo[3.1.0]hexane-3-carboxamide] | < 100 nM
11 | Nc1ncnc2c1c1cc(C(F)(F)F)ccc1n2CC(=O)N1[C@@H]2C[C@@H]2C[C@H]1C(=O)Nc1cccc(Br)c1 [Compound 266b, (1R,3S,5R)-2-(2-(4-amino-6-(trifluoromethyl)-9H-pyrimido[4,5-b]indol-9-yl)acetyl)-N-(3-bromophenyl)-2-azabicyclo[3.1.0]hexane-3-carboxamide] | < 100 nM
12 | Nc1ncnc2c1c1cc(C(F)(F)F)ccc1n2CC(=O)N1[C@@H]2C[C@@H]2C[C@H]1C(=O)Nc1cccc(Cl)n1 [Compound 267c, (1R,3S,5R)-2-(2-(4-amino-6-(trifluoromethyl)-9H-pyrimido[4,5-b]indol-9-yl)acetyl)-N-(6-chloropyridin-2-yl)-2-azabicyclo[3.1.0]hexane-3-carboxamide] | < 100 nM
13 | Nc1ncnc2c1c1cc(C(F)(F)F)ccc1n2CC(=O)N1[C@@H]2C[C@@H]2C[C@H]1C(=O)Nc1cccc(Br)c1F [Compound 268b, (1R,3S,5R)-2-(2-(4-amino-6-(trifluoromethyl)-9H-pyrimido[4,5-b]indol-9-yl)acetyl)-N-(3-bromo-2-fluorophenyl)-2-azabicyclo[3.1.0]hexane-3-carboxamide] | < 100 nM
14 | C[C@@]12C[C@@H](C(=O)Nc3cccc(Cl)n3)N(C(=O)Cn3c4ccc(C(F)(F)F)cc4c4c(N)ncnc43)[C@@H]1C2 [Compound 269c, (1R,3S,5R)-2-(2-(4-amino-6-(trifluoromethyl)-9H-pyrimido[4,5-b]indol-9-yl)acetyl)-N-(6-chloropyridin-2-yl)-5-methyl-2-azabicyclo[3.1.0]hexane-3-carboxamide] | < 100 nM
15 | C[C@@]12C[C@@H](C(=O)Nc3cccc(Br)n3)N(C(=O)Cn3c4ccc(-c5ccccc5)cc4c4c(N)ncnc43)[C@@H]1C2 [Compound 270a, (1R,3S,5R)-2-(2-(4-amino-6-phenyl-9H-pyrimido[4,5-b]indol-9-yl)acetyl)-N-(6-bromopyridin-2-yl)-5-methyl-2-azabicyclo[3.1.0]hexane-3-carboxamide] | < 100 nM
16 | Cc1cccc(-c2ccc3c(c2)c2c(N)ncnc2n3CC(=O)N2[C@@H]3C[C@@H]3C[C@H]2C(=O)Nc2cccc(Br)n2)c1 [Compound 271c, (1R,3S,5R)-2-(2-(4-amino-6-(m-tolyl)-9H-pyrimido[4,5-b]indol-9-yl)acetyl)-N-(6-bromopyridin-2-yl)-2-azabicyclo[3.1.0]hexane-3-carboxamide] | < 100 nM
17 | Nc1ncnc2c1c1cc(C(F)(F)F)ccc1n2CC(=O)N1[C@@H]2C[C@@H]2C[C@H]1C(=O)Nc1ccccn1 [Compound 272c, (1R,3S,5R)-2-(2-(4-amino-6-(trifluoromethyl)-9H-pyrimido[4,5-b]indol-9-yl)acetyl)-N-(pyridin-2-yl)-2-azabicyclo[3.1.0]hexane-3-carboxamide] | 100 to 1000 nM
18 | Nc1ncnc2c1c1cc(-c3cccnc3)ccc1n2CC(=O)N1[C@@H]2C[C@@H]2C[C@H]1C(=O)Nc1cccc(Br)n1 [Compound 273c, (1R,3S,5R)-2-(2-(4-amino-6-(pyridin-3-yl)-9H-pyrimido[4,5-b]indol-9-yl)acetyl)-N-(6-bromopyridin-2-yl)-2-azabicyclo[3.1.0]hexane-3-carboxamide] | < 100 nM
19 | Nc1ncnc2c1c1cc(OC(F)(F)F)ccc1n2CC(=O)N1[C@@H]2C[C@@H]2C[C@H]1C(=O)Nc1cccc(Br)n1 [Compound 274g, (1R,3S,5R)-2-(2-(4-amino-6-(trifluoromethoxy)-9H-pyrimido[4,5-b]indol-9-yl)acetyl)-N-(6-bromopyridin-2-yl)-2-azabicyclo[3.1.0]hexane-3-carboxamide] | < 100 nM
20 | Nc1ncnc2c1c1cc(-c3ccoc3)ccc1n2CC(=O)N1[C@@H]2C[C@@H]2C[C@H]1C(=O)Nc1cccc(Br)n1 [Compound 275c, (1R,3S,5R)-2-(2-(4-amino-6-(furan-3-yl)-9H-pyrimido[4,5-b]indol-9-yl)acetyl)-N-(6-bromopyridin-2-yl)-2-azabicyclo[3.1.0]hexane-3-carboxamide] | < 100 nM
21 | COc1cc2c3c(N)ncnc3n(CC(=O)N3[C@@H]4C[C@@H]4C[C@H]3C(=O)Nc3cccc(Br)n3)c2cc1OC [Compound 276g, (1R,3S,5R)-2-(2-(4-amino-6,7-dimethoxy-9H-pyrimido[4,5-b]indol-9-yl)acetyl)-N-(6-bromopyridin-2-yl)-2-azabicyclo[3.1.0]hexane-3-carboxamide] | < 100 nM
22 | COc1cc2c3c(N)ncnc3n(CC(=O)N3[C@H](C(=O)Nc4cccc(Br)n4)C[C@@]4(C)C[C@@H]34)c2cc1OC [Compound 277a, (1R,3S,5R)-2-(2-(4-amino-6,7-dimethoxy-9H-pyrimido[4,5-b]indol-9-yl)acetyl)-N-(6-bromopyridin-2-yl)-5-methyl-2-azabicyclo[3.1.0]hexane-3-carboxamide] | < 100 nM
23 | COc1cc(OC)c2c(c1)c1c(N)ncnc1n2CC(=O)N1[C@@H]2C[C@@H]2C[C@H]1C(=O)Nc1cccc(Br)n1 [Compound 278g, (1R,3S,5R)-2-(2-(4-amino-6,8-dimethoxy-9H-pyrimido[4,5-b]indol-9-yl)acetyl)-N-(6-bromopyridin-2-yl)-2-azabicyclo[3.1.0]hexane-3-carboxamide] | < 100 nM
24 | COc1cc(OC)c2c(c1)c1c(N)ncnc1n2CC(=O)N1[C@H](C(=O)Nc2cccc(Br)n2)C[C@@]2(C)C[C@@H]12 [Compound 279a, (1R,3S,5R)-2-(2-(4-amino-6,8-dimethoxy-9H-pyrimido[4,5-b]indol-9-yl)acetyl)-N-(6-bromopyridin-2-yl)-5-methyl-2-azabicyclo[3.1.0]hexane-3-carboxamide] | < 100 nM
25 | COc1cc(F)cc2c3c(N)ncnc3n(CC(=O)N3[C@@H]4C[C@@H]4C[C@H]3C(=O)Nc3cccc(Br)n3)c12 [Compound 280g, (1R,3S,5R)-2-(2-(4-amino-6-fluoro-8-methoxy-9H-pyrimido[4,5-b]indol-9-yl)acetyl)-N-(6-bromopyridin-2-yl)-2-azabicyclo[3.1.0]hexane-3-carboxamide] | < 100 nM
